Laboratory results: US20250269036A1, “METHODS FOR ENHANCEMENT OF ENGINEERED CELL THERAPIES IN CANCER TREATMENT” (PURDUE RESEARCH FOUNDATION, priority 2021, published 2025)

Experiments:
[1] = Stability during incubation in culture media; assay type: physicochemical; conditions: 37° C. in the culture media, 48 hours
Experimental: Indeed, Compound 1B retained the original structure after 48 hours incubation.

[2] = test system: M2-induced human monocyte-derived macrophages; assay: Reprogramming of M2-induced human monocyte-derived macrophages; assay type: cell-based; conditions: 100 nM, 2 hours + 46 hours, excess FA-glucosamine
Experimental: Changes in both sets of cytokines were inhibited by blockade of unoccupied folate receptors with excess FA-glucosamine (2+46h, competition).

fibrotic lungs = assay: Staining of healthy and fibrotic lung sections (DAPI, anti-F4/80, anti-CD206); assay type: in vivo, mice; conditions: differences between treated groups
Excerpt: Sections from the same healthy and fibrotic lungs described in FIG. 6 were stained with DAPI (nuclei; blue), anti-F4/80 (macrophages; red), and anti-CD206 (M2 macrophage marker; green), and images were obtained with a Leica Versa 8 whole-slide scanner as described in Methods (n=2). Scale bars, 100 μm.

[3] = test system: M2-induced THP-1 macrophages; assay: Secreted CCL18 and IL-1β in THP-1 macrophage supernatants by ELISA; assay type: cell-based, human
Experimental: FIGS. 6A-6D show graphical data representative of various marker levels measured from M2-induced THP-1 macrophages treated with different concentrations of drugs for 48 hours (FIGS. 6A and 6B) or for 2 hours, then displaced with fresh medium and cultured for the remaining 46 hours (FIGS. 6C and 6D). In both cases, cell supernatants were collected and secreted CCL18 protein and IL-1β was detected by ELISA.
CCL18 and IL-1β were quantified in induced THP-1 cell supernatants using a human DuoSet ELISA Development System (R&D Systems Europe, Abingdon, UK; #DY394-05) and an IL-1 beta Human ELISA Kit (Thermo Fisher Scientific, Waltham, MA; #BMS224-2) as described by manufactures. BALF samples were analyzed for mouse IFN-γ using ELISA MAX™ Deluxe (Biolegend, San Diego, CA; #430804).

BM-induced mice = test system: BM-induced mice
Experimental: Studies were also performed to determine if macrophages in pulmonary fibrotic lungs might be specifically targeted with folate-linked drugs in vivo. […] (The BM model is widely regarded to be helpful in terms of enabling mechanistic investigations relevant to fibrogenesis in an in vivo context.)
More specifically, eight-week-old C57BL6 male mice from Charles River (average weight 22 g to 25 g) were housed under pathogen-free conditions at room temperature (22° C.) under a 12 hours light-dark cycle. Mice were placed on a folate deficient chow (Envigo Teklad Global Rat Food Pellets) for 1 week prior to the BM or PBS instillation. Fresh water and folate-deficient diet were freely available. All animal procedures were approved by the Purdue Animal Care and Use Committee in accordance with National Institute of Health guidelines.
Thereafter, the mice were anesthetized with ketamine/xylazine and the necks of the mice were shaved using hair remover lotion and then sterilized with 70% alcohol. A small incision was made on the neck to visualize the trachea. Mice were positioned at a 75-degree angle and injected intratracheally with 100 μL sterile PBS or BM (Cayman Chemicals, Ann Arbor, MI; #13877) dissolved in PBS (0.75 mg/kg) using a 1 cc syringe with 26 G needle. Body weights were monitored every other day throughout the experiment.
After 2 hours, mice were sacrificed using CO2 asphyxiation and an incision in the skin from the abdomen to neck was immediately made to expose the lungs and trachea. A small cut in the upper trachea was then introduced for insertion of a blunted, 22-gauge needle, and a nylon string was tied around the trachea to seal the trachea around the needle. The trachea (containing the inserted needle), lungs and heart were then removed en masse by carefully cutting the connective tissue beneath the lungs, and the bronchus of left lung was clipped with a Dieffenbach vessel clip. The right lung was injected with PBS and aspirated 3 times using a 1 ml syringe, and the recovered lavage fluid was saved on ice.
Bronchoalveolar lavage fluid (BALF) was then analyzed to determine how the targeted TLR7 agonist works. BALF samples were centrifuged at 1500 rpm for 5 min at 4° C. and the supernatant was aliquoted and stored at −80° C. for cytokine/chemokine analyses. Cell pellets were resuspended and cultured in pre-warmed RPMI 1640 medium for 2 hours and then washed 3× with pre-warmed PBS prior to harvesting for qPCR assay. The right lung was then tied with a nylon string and used for subsequent analysis of hydroxyproline content. The left lung was inflated with 1 ml PBS using the inserted syringe and transferred to 10% formalin solution for subsequent histological analyses.
Lobes of the right lung collected above were weighed, placed in a pressure-tight vial (Supelco Inc., Bellefonte, PA; #27003), and hydrolyzed with 6N HCl (10 ml/g, v/w) in a sand bath at 120° C. for 3.5 hours. The hydrolyzed solution was cooled at 4° C. for 15 min and transferred to a 1.5 ml Eppendorf tube prior to centrifugation at 12,000 rcf for 15 min at 4° C. Supernatant was carefully collected, aliquoted and used for hydroxyproline (HYP) analysis.
For the subsequent HYP analysis, 10 μl of sample was transferred into a 96-well plate and neutralized with 10 μl of 5.3 M sodium hydroxide solution. Isopropanol (40 μl) was then added to each well followed by 20 μl of oxidation buffer and the mixture was incubated on a shaker at room temperature for 5 min. […]

[4] = test system: IL-4, IL-6 plus IL-13 stimulated THP-1 cells (M2-like macrophages); assay: Reprogramming of M2-polarized THP-1 macrophages, marker mRNA by qPCR; assay type: cell-based, human
Experimental: THP-1 cells were initially selected as a model system because this human monocytic cell line is known to acquire an M2-like phenotype and produce significant quantities of anti-inflammatory cytokines upon stimulation with IL-4, IL-6 plus IL-13.
THP-1 cells were seeded into 96-well plates at a density of 60,000 cells/well. Cells were differentiated into unpolarized macrophages by 48 hours incubation with 200 nM PMA followed by 24 hours incubation in fresh RPMI medium. […] Cultures were maintained at 37° C. in a humidified 5% CO2 incubator.
Total RNA was isolated from 1×10^5-2×10^5 macrophages using a Quick-RNATM MicroPrep kit (Zymo Research, Irvine, CA) according to the manufacturer-recommended protocol. […] IL-6, CXCL10, IFNα, IFN-γ and CD86 were used as markers for an M1 phenotype, while CCL18, CD206, CD163 and Arg1 were employed as markers for the M2 phenotype. IL-1β, PDGFβ, MMP9 and TIMP 3 were measured as indicators of an anti-inflammatory phenotype. IRAK-4 was used as an indicator of TLR7 stimulation. To control for specificity of the amplification products, a melting curve analysis was performed. […] Each sample was analyzed independently in triplicate for each marker.
Primarily, human monocytic (THP-1) cells were induced to the M2-like phenotype using the methods and materials previously described. In particular, THP-1 cells were seeded into 96-well plates at a density of 60,000 cells/well. Cells were differentiated into unpolarized macrophages by 48h incubation with 200 nM PMA followed by 24 hours incubation in fresh RPMI medium. The resulting macrophages were polarized to an M2-like phenotype by incubation with 20 ng/ml IL-4, 20 ng/ml IL-13, and 5 ng/mL IL-6 for 48h. Cultures were maintained at 37° C. in a humidified 5% CO2 incubator.
In addition to the nonconjugated TLR7 agonist, conjugated compounds of the present disclosure were likewise evaluated. […] The cells were subsequently harvested for gene analysis by qPCR and the relative expression of CCL18 (FIG. 14A), CD206 (FIG. 14B), and IL-1β (FIG. 14C) analyzed.

healthy mice = assay: Plasma cytokine levels in healthy mice after tail vein injection; assay type: in vivo
Experimental: (FIGS. 20A-C) Measurement of plasma IL-6 (FIG. 20A), IFNα (FIG. 20B) and TNFα (FIG. 20C) (n=3). (FIGS. 20D-F). The effect of drug concentration on plasma levels of IL-6 (FIG. 20D), IFNα (FIG. 20E), and TNFα (FIG. 20F) was determined at 1.5h, 1h, or 1h after treatment, respectively (n=2) (FIG. 20G).
(FIGS. 36C and 36D). The effect of drug on plasma levels of IL-6 (FIG. 36C) and TNFα (FIG. 36D) was determined at 1 hour or 1.5 hours after treatment.

[5] = incubated continuously for 48 hours, ELISA
[6] = 2 hours with drug, then drug-free medium

With `CCCCc1nc2c(N)nc3ccccc3c2n1CC(C)(C)OC(=O)OCCSSCC(NC(=O)CCC(NC(=O)c1ccc(NCc2cnc3nc(N)[nH]c(=O)c3n2)cc1)C(=O)O)C(=O)O` (centres unmarked) [Compound 1B] the stability during incubation [1] was “remained stable”, the “downregulation of biomarkers in presence of competitor” value [2] was “blocked” and the “proinflammatory response in vivo (lung section staining)” value (fibrotic lungs) was “robust proinflammatory response”. The “reduction of secreted CCL18 and IL-1β, comparison of compounds” value ([3]; drug exposure limited to 2 hours, then 46 hours fresh medium) was “superior”, the “secreted CCL18 polypeptide” value [3, 5] was “reductions” and the “secreted IL-1β polypeptide” value [3, 5] was “reductions”. The “lung histology with increasing dose” value (BM-induced mice; 0, 1, 3 or 10 nmoles) was “lung histology improved”, the “hydroxyproline content of lung hydrolysates, order of efficacy by dose” value (BM-induced mice; 0, 1, 3 or 10 nmoles every other day from day 10, day 21) was 10 nmol/mouse>3 nmol/mouse>1 nmol/mouse>0 nmol/mouse and the “total number of BALF cells” value (BM-induced mice; different doses, day 21) was “decreased in a dose-dependent manner”. For the same compound, the “collagen stain (Masson's trichrome)” value (BM-induced mice; tail vein injection) was “strongly suppressed”, the “lung architecture (H&E staining)” value (BM-induced mice; treated beginning on day 10) was “lung architecture that resembles that of healthy mice” and the “cancer/M2-type markers (CCL18, CD206, IL-1β, PDGFβ mRNA)” value ([4]; 2 hours incubation, harvested immediately or after further 46 hours) was “downregulated cancer/M2-type markers of macrophages more than Compound 1A”. For the same compound, the TNFα induction [4, 6] was “dramatically improved”, the “potency in reprogramming relative to comparator” value [4, 6] was “superior potency relative to Compound 1A” and the “M2 to M1 marker changes (FIGS. 3A-3F)” value ([4]; 48 hours incubation, various concentrations) was “same qualitative changes were observed, only the magnitude of the impact of Compound 1B was somewhat reduced”. For the same compound, the “inflammatory cytokine release, dose comparison” value (healthy mice; effect of drug concentration, 1.5h, 1h or 1h after treatment) was “stimulates less inflammatory cytokine release than half the dose of Compound 1A” and the “systemic cytokine release (plasma IL-6, IFNα, TNFα)” value (healthy mice; healthy mice, tail vein, 10 nmol) was “does not”.
